# In ChEMBL document CHEMBL6092193, “Identification of furo[2,3-d]pyrimidin-4-ylsulfanyl-1,3,4-thiadiazole derivatives as novel FLT3-ITD inhibitors” (Eur J Med Chem, 2024):
# Calls of active or inactive are those of the source. The rule behind the calls is not given here.
# Tests used:
# MV4-11 [1] = test: Induction of cell cycle arrest in human MV4-11 cells assessed as proportion of cells at G2/M phase at 80 nM incubated for 24 hrs by PI staining based flow cytometry (reference value: 10%); type: functional
# HL-60 [2] = test: Induction of cell cycle arrest in human HL-60 cells assessed as proportion of cells at subG1 phase at 16 nM incubated for 24 hrs by PI staining based flow cytometry (reference value: 6.94%); type: functional
# HL-60 [3] = test: Induction of cell cycle arrest in human HL-60 cells assessed as proportion of cells at S phase at 80 nM incubated for 24 hrs by PI staining based flow cytometry (reference value: 36.12%); type: functional
# [4] = tested on: Receptor-type tyrosine-protein kinase FLT3 (Homo sapiens), P36888 [UNDEFINED MUTATION]; type: cell-based; details: BaF3, dose lower […], dose upper 2000.0 nM, time 2.0 hrs
# HL-60 [5] = test: cells; details: Homo sapiens, HL-60, 72 h
# Description: Antiproliferative activity against human HL-60 cells assessed as inhibition of cell growth incubated for 72 hrs by resazurin dye based fluorescence analysis
# [6] = Selectivity ratio of GI50 for antiproliferative activity against human MV4-11 cells to GI50 for antiproliferative activity against human MOLM-13 cells
# HL-60 [7] = test: Induction of cell cycle arrest in human HL-60 cells assessed as proportion of cells at S phase at 2000 nM incubated for 24 hrs by PI staining based flow cytometry (reference value: 36.12%); type: functional
# HL-60 [8] = test: Induction of cell cycle arrest in human HL-60 cells assessed as proportion of cells at S phase at 400 nM incubated for 24 hrs by PI staining based flow cytometry (reference value: 36.12%); type: functional
# [9] = molecular target: T1, Receptor-type tyrosine-protein kinase FLT3 (Homo sapiens, UniProt P36888)
# T1 sequence (P36888 whole entry): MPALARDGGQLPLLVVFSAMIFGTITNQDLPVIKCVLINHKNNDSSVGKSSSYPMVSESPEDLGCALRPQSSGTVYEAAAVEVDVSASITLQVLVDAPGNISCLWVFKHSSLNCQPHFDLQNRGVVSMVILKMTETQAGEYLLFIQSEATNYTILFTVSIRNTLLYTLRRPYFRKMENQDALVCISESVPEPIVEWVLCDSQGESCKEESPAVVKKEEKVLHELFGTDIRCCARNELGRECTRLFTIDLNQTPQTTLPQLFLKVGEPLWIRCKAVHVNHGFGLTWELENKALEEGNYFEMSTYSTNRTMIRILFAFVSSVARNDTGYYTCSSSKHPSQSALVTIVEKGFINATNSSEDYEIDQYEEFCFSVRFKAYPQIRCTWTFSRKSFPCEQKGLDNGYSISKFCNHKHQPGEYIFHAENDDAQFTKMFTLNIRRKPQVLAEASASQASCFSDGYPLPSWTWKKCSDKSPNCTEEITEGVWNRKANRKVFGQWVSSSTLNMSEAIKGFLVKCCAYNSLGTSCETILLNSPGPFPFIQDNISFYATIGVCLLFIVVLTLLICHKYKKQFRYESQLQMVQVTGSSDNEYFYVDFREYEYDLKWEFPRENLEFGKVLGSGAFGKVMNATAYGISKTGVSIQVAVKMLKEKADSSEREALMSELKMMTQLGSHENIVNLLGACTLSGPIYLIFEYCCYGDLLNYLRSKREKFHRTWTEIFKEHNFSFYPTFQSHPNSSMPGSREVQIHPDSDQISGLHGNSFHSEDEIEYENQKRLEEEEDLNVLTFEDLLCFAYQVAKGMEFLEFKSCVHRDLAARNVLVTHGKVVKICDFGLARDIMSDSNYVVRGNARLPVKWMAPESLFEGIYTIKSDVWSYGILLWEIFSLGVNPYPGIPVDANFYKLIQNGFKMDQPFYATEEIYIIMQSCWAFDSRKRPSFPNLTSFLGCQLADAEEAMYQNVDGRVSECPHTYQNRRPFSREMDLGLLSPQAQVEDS
# Description: Inhibition of NanoLuc-fused FLT3 (unknown origin) transfected in HEK293 cells incubated for 2 hrs by NanoBRET target engagement assay
# HL-60 [10] = test: Induction of cell cycle arrest in human HL-60 cells assessed as proportion of cells at S phase at 3.2 nM incubated for 24 hrs by PI staining based flow cytometry (reference value: 36.12%); type: functional
# [11] = molecular target: Receptor-type tyrosine-protein kinase FLT3 (Homo sapiens, UniProt P36888, ITD); test: biochemical; type: cell-based, Sf9
# MV4-11 [12] = test: Induction of cell cycle arrest in human MV4-11 cells assessed as proportion of cells at S phase at 3.2 nM incubated for 24 hrs by PI staining based flow cytometry (reference value: 25.97%); type: functional
# [13] = molecular target: Receptor-type tyrosine-protein kinase FLT3 (Homo sapiens) (UniProt P36888); test: Inhibition of FLT3 in human MV4-11 cells assessed as inhibition of STAT5 phosphorylation at Tyr694 residue incubated for 1 hr by immunoblot analysis; type: cell-based; details: dose lower […], dose upper 2000.0 nM
# MV4-11 [14] = test: Induction of cell cycle arrest in human MV4-11 cells assessed as proportion of cells at G2/M phase at 400 nM incubated for 24 hrs by PI staining based flow cytometry (reference value: 10%); type: functional
# HL-60 [15] = test: Induction of cell cycle arrest in human HL-60 cells assessed as proportion of cells at G1 phase at 3.2 nM incubated for 24 hrs by PI staining based flow cytometry (reference value: 49.36%); type: functional
# BaF3 = test: cells; details: Mus musculus, BaF3, 72 h
# Description: Antiproliferative activity against mouse BaF3 cells assessed as inhibition of cell growth incubated for 72 hrs by resazurin dye based fluorescence analysis
# MV4-11 [16] = test: Induction of cell cycle arrest in human MV4-11 cells assessed as proportion of cells at S phase at 400 nM incubated for 24 hrs by PI staining based flow cytometry (reference value: 25.97%); type: functional
# HL-60 [17] = test: Induction of cell cycle arrest in human HL-60 cells assessed as proportion of cells at G1 phase at 80 nM incubated for 24 hrs by PI staining based flow cytometry (reference value: 49.36%); type: functional
# HL-60 [18] = test: Induction of cell cycle arrest in human HL-60 cells assessed as proportion of cells at S phase at 16 nM incubated for 24 hrs by PI staining based flow cytometry (reference value: 36.12%); type: functional
# HL-60 [19] = test: Induction of cell cycle arrest in human HL-60 cells assessed as proportion of cells at subG1 phase at 80 nM incubated for 24 hrs by PI staining based flow cytometry (reference value: 6.94%); type: functional
# EOL1 = test: cells; details: Homo sapiens, EOL1, 72 h
# Description: Antiproliferative activity against human EOL1 cells harboring FIP1L1-PDGFRA fusion gene assessed as inhibition of cell growth incubated for 72 hrs by resazurin dye based fluorescence analysis
# [20] = molecular target: High affinity nerve growth factor receptor (Homo sapiens) (UniProt P04629); test: Binding affinity to human TrkA (441 to 760 residues) expressed in baculovirus-infected Sf21 cells assessed as residual activity using poly(Glu:Tyr) as substrate in presence of ATP and [gamma-33P]ATP incubated for 30 mins by MRC Protein Phoshorylation and Ubiquitylation Unit based Express Panel assay
# MV4-11 [21] = test: Induction of cell cycle arrest in human MV4-11 cells assessed as proportion of cells at subG1 phase at 16 nM incubated for 24 hrs by PI staining based flow cytometry (reference value: 10.44%); type: functional
# Kasumi 1 = test: cells; details: Homo sapiens, Kasumi 1, 72 h
# Description: Antiproliferative activity against human Kasumi 1 cells harboring KIT N822K mutant assessed as inhibition of cell growth incubated for 72 hrs by resazurin dye based fluorescence analysis
# MV4-11 [22] = type: functional, Homo sapiens; details: dose 16 nM; time 24 hrs
# Sequence of High affinity nerve growth factor receptor (Homo sapiens) (P04629 33-796 limits assumed): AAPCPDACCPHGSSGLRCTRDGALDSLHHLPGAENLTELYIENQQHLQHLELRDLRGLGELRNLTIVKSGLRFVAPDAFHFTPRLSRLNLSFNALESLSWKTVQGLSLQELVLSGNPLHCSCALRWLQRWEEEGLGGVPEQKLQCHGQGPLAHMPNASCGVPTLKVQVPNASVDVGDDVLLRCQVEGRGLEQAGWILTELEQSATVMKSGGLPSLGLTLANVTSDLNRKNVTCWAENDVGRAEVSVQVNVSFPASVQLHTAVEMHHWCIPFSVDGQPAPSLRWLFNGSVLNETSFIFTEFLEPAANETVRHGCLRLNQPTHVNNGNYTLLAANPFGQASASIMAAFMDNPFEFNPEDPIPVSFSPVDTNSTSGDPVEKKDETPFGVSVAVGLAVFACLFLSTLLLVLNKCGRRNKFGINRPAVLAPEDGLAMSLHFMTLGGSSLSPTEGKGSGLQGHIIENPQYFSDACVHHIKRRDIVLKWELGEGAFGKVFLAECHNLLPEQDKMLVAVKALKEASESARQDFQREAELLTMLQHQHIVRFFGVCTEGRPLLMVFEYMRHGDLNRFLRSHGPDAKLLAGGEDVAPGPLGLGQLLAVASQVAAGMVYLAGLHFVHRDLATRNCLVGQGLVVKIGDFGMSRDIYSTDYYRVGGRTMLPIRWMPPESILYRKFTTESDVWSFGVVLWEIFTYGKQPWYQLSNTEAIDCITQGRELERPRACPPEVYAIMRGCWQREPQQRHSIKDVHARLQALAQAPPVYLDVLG
structure (smiles),measurement,setting,value
COc1ccc(NC(=O)Nc2nnc(Sc3ncnc4oc(-c5ccccc5)cc34)s2)cc1,Activity,MV4-11 [1],1.23%
same,Activity,HL-60 [2],7.48%
same,Activity,HL-60 [3],37.03%
same,inhibition,[4],Active
same,GI50,HL-60 [5],> 10000 nM
same,RatioGI50,[6],100
same,Activity,HL-60 [7],37.26%
same,Activity,HL-60 [8],35.91%
same,IC50,[9],174 nM
same,Activity,HL-60 [10],37.01%
same,IC50,[11],31 nM
same,Activity,MV4-11 [12],20.86%
same,inhibition,[13],Dose-dependent-effect
same,Activity,MV4-11 [14],1.43%
same,Activity,HL-60 [15],49.95%
same,GI50,BaF3,> 10000 nM
same,Activity,MV4-11 [16],4.48%
same,Activity,HL-60 [17],49.29%
same,Activity,HL-60 [18],37.68%
same,Activity,HL-60 [19],8.17%
same,GI50,EOL1,39 nM
same,Activity,[20],< 50%
same,Activity,MV4-11 [21],16.42%
same,GI50,Kasumi 1,3060 nM
same,Activity,MV4-11 [22],89.29%
